Source: PubChem BioAssay AID330 (DTP/NCI, 2004)
“And” between values parts separate entries of the source, which are not always exact repeats. Equal entries are not always repeated. Inconclusive results and toxic doses are left out.

Test system: P388 leukemia ip, CD2F1 mice, survival T/C
Assay: NCI In Vivo Anticancer Drug Screen. Data for tumor model P388 Leukemia (intraperitoneal) in CD2F1 (CDF1) mice
Conditions: endpoint: median survival time, higher = longer survival
Procedure, shortened: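 Mice carrying the transplanted tumor received test compound or vehicle. Survival was recorded in each group, and the value is the treated-group measurement divided by that of the vehicle-treated control group.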

[1] = dose: 50.0 mg/kg/injection, schedule: Q01DX009 (ip), vehicle: saline with Tween-80
[2] = dose: 100.0 mg/kg/injection, schedule: Q01DX009 (ip), vehicle: saline with Tween-80
[3] = dose: 200.0 mg/kg/injection, schedule: Q01DX009 (ip), vehicle: saline with Tween-80
[4] = dose: 50.0 mg/kg/injection, schedule: Q01DX005 (ip), vehicle: saline with Tween-80
[5] = dose: 100.0 mg/kg/injection, schedule: Q01DX005 (ip), vehicle: saline with Tween-80
[6] = dose: 200.0 mg/kg/injection, schedule: Q01DX005 (ip), vehicle: saline with Tween-80
[7] = dose: 60.0 mg/kg/injection, schedule: Q01DX005 (ip), vehicle: saline with Tween-80
[8] = dose: 120.0 mg/kg/injection, schedule: Q01DX005 (ip), vehicle: saline with Tween-80
[9] = dose: 240.0 mg/kg/injection, schedule: Q01DX005 (ip), vehicle: saline with Tween-80
[10] = dose: 50.0 mg/kg/injection, schedule: Q01DX005 (ip), vehicle: Klucel (hydroxypropylcellulose) (HPC)
[11] = dose: 100.0 mg/kg/injection, schedule: Q01DX005 (ip), vehicle: Klucel (hydroxypropylcellulose) (HPC)
[12] = dose: 200.0 mg/kg/injection, schedule: Q01DX005 (ip), vehicle: Klucel (hydroxypropylcellulose) (HPC)
[13] = dose: 25.0 mg/kg/injection, schedule: Q01DX001 (ip), vehicle: saline with Tween-80
[14] = dose: 50.0 mg/kg/injection, schedule: Q01DX001 (ip), vehicle: saline with Tween-80
[15] = dose: 25.0 mg/kg/injection, schedule: Q01DX009 (ip), vehicle: Klucel (hydroxypropylcellulose) (HPC)
[16] = dose: 50.0 mg/kg/injection, schedule: Q01DX009 (ip), vehicle: Klucel (hydroxypropylcellulose) (HPC)
[17] = dose: 100.0 mg/kg/injection, schedule: Q01DX009 (ip), vehicle: Klucel (hydroxypropylcellulose) (HPC)
[18] = dose: 200.0 mg/kg/injection, schedule: Q01DX009 (ip), vehicle: Klucel (hydroxypropylcellulose) (HPC)
[19] = dose: 25.0 mg/kg/injection, schedule: Q01DX005 (ip), vehicle: saline with Tween-80

In the case of c1ccc2c(c1)[nH]c1c2c[n+]2c3c(cccc13)CCC2, the T/C (dose: 8.33 mg/kg/injection, schedule: Q01DX009 (ip), vehicle: saline) is reported as 115 % of control and the T/C (dose: 18.7 mg/kg/injection, schedule: Q01DX009 (ip), vehicle: saline) is reported as 95 % of control.

With CC1CCN(SSc2nc3ccccc3s2)CC1 the T/C [1] was 104 % of control and 116 % of control, the T/C [2] was 107 % of control and 112 % of control and the T/C [3] was 110 % of control and 118 % of control. The T/C (dose: 400.0 mg/kg/injection, schedule: Q01DX009 (ip), vehicle: saline with Tween-80) was 114 % of control.

In the case of O=C(CSc1nccc(=O)[nH]1)c1ccccc1, the T/C [4] is reported as 103 % of control, the T/C [5] is reported as 103 % of control and the T/C [6] is reported as 100 % of control.

For O=C(Nc1ccccc1)c1c(O)[nH]c(=O)[nH]c1=O, the T/C [5] was 163 % of control and 207 % of control and the T/C [6] was 204 % of control.

For CC(C)(Oc1ccc(Cl)cc1)C(=O)NC1CC(C)(C)N(O)C(C)(C)C1, the T/C [7] was 104 % of control, the T/C [8] was 96 % of control and the T/C [9] was 91 % of control.

With C/C(=C\c1ccc([N+](=O)[O-])cc1)C(=O)N1CCCCC1 the T/C [10] was 105 % of control, the T/C [11] was 96 % of control and the T/C [12] was 96 % of control.

For O=C1CC(=O)N(CCc2ccncc2)C(=O)N1CCc1ccncc1, the T/C (dose: 50.0 mg/kg/injection, schedule: Q01DX005 (ip), vehicle: saline) was 106 % of control and the T/C (dose: 100.0 mg/kg/injection, schedule: Q01DX005 (ip), vehicle: saline) was 106 % of control.

With CSC(=S)n1nc(-c2cccs2)c(N=Nc2ccc([N+](=O)[O-])cc2)c1C(F)(F)F the T/C [7] was 94 % of control, the T/C [8] was 88 % of control and the T/C [9] was 97 % of control.

In the case of NC(N)=N/N=C1\C/C(=N\N=C(N)N)c2ccccc21, the T/C (dose: 6.25 mg/kg/injection, schedule: Q01DX009 (ip), vehicle: saline with Tween-80) is reported as 99 % of control, the T/C (dose: 12.5 mg/kg/injection, schedule: Q01DX009 (ip), vehicle: saline with Tween-80) is reported as 97 % of control and the T/C [13] is reported as 107 % of control. For the same compound, the T/C (dose: 25.0 mg/kg/injection, schedule: Q01DX009 (ip), vehicle: saline with Tween-80) was 91 % of control and the T/C [14] was 100 % of control.

In the case of CC(=O)Oc1ccc2ccc(=O)oc2c1OC(C)=O, the T/C [15] is reported as 102 % of control, the T/C [16] is reported as 101 % of control and the T/C [17] is reported as 109 % of control. The T/C [18] was 118 % of control.

With COc1ccc(-c2cc3cc(CCCOC4OC(COC5OCC(O)C(O)C5O)C(O)C(O)C4O)cc(OC)c3o2)cc1OC (stereo not given) the T/C (dose: 18.75 mg/kg/injection, schedule: Q01DX005 (ip), vehicle: Klucel (hydroxypropylcellulose) (HPC)) was 96 % of control and the T/C (dose: 37.5 mg/kg/injection, schedule: Q01DX005 (ip), vehicle: Klucel (hydroxypropylcellulose) (HPC)) was 88 % of control.

c1ccc(-c2nnc(-c3ccccn3)nn2)nc1 was tested, and the T/C [15] was 100 % of control, the T/C [16] was 99 % of control and the T/C [17] was 100 % of control. For the same compound, the T/C [18] was 108 % of control and the T/C (dose: 400.0 mg/kg/injection, schedule: Q01DX009 (ip), vehicle: Klucel (hydroxypropylcellulose) (HPC)) was 96 % of control.

In the case of CC1(C)CC(O)C2OC2(C)C1 (stereo not given), the T/C (dose: 50.0 mg/kg/injection, schedule: Q01DX009 (ip), vehicle: saline) is reported as 94 % of control, the T/C (dose: 100.0 mg/kg/injection, schedule: Q01DX009 (ip), vehicle: saline) is reported as 89 % of control and the T/C (dose: 200.0 mg/kg/injection, schedule: Q01DX009 (ip), vehicle: saline) is reported as 101 % of control.

In the case of CC(C)=C(C#C[Si](C)(C)C)OS(=O)(=O)C(F)(F)F, the T/C [4] is reported as 100 % of control, the T/C [5] is reported as 101 % of control and the T/C [6] is reported as 101 % of control.

In the case of Cc1cc2[nH]c(Cl)c(/C=N/Nc3ccccc3[N+](=O)[O-])c2cc1O, the T/C (dose: 50.0 mg/kg/injection, schedule: Q01DX001 (ip), vehicle: Klucel (hydroxypropylcellulose) (HPC)) is reported as 96 % of control, the T/C (dose: 100.0 mg/kg/injection, schedule: Q01DX001 (ip), vehicle: Klucel (hydroxypropylcellulose) (HPC)) is reported as 99 % of control and the T/C (dose: 200.0 mg/kg/injection, schedule: Q01DX001 (ip), vehicle: Klucel (hydroxypropylcellulose) (HPC)) is reported as 90 % of control and 96 % of control.

In the case of O/N=C(/CC(c1ccccc1)N1CCOCC1)c1ccccc1 (stereo not given), the T/C [10] is reported as 93 % of control and the T/C [11] is reported as 90 % of control.

For O=C1CCC(=O)N1CN(CS(=O)(=O)c1ccc(Cl)cc1)c1ccc(Cl)cc1, the T/C (dose: 60.0 mg/kg/injection, schedule: Q01DX005 (ip), vehicle: Klucel (hydroxypropylcellulose) (HPC)) was 90 % of control, the T/C (dose: 120.0 mg/kg/injection, schedule: Q01DX005 (ip), vehicle: Klucel (hydroxypropylcellulose) (HPC)) was 88 % of control and the T/C (dose: 240.0 mg/kg/injection, schedule: Q01DX005 (ip), vehicle: Klucel (hydroxypropylcellulose) (HPC)) was 90 % of control.

In the case of CC1=C(/C=C/C(C)=C/C=C/C(C)=C/C(=O)Nc2ccc(O)cc2)C(C)(C)CCC1, the T/C [19] is reported as 97 % of control and the T/C [4] is reported as 90 % of control.

For CC(/C=N\Nc1ccc(Cl)cc1)=N/NC(=O)C[N+](C)(C)C, the T/C (dose: 100.0 mg/kg/injection, schedule: Q04DX002 (ip), vehicle: saline) was 101 % of control, the T/C (dose: 200.0 mg/kg/injection, schedule: Q04DX002 (ip), vehicle: saline) was 100 % of control and the T/C (dose: 400.0 mg/kg/injection, schedule: Q04DX002 (ip), vehicle: saline) was 92 % of control.

For O=C1NC(c2ccccc2)C(c2ccccc2)(c2ccccc2)O1 (stereo not given), the T/C [1] was 93 % of control and the T/C [2] was 86 % of control.

For c1ccc2c(c1)-c1ccccc1C1NC21 (stereo not given), the T/C (dose: 12.5 mg/kg/injection, schedule: Q01DX001 (ip), vehicle: saline with Tween-80) was 99 % of control and 110 % of control, the T/C [13] was 105 % of control and 110 % of control and 123 % of control and the T/C [14] was 113 % of control. The T/C [4] was 112 % of control, the T/C (dose: 100.0 mg/kg/injection, schedule: Q01DX001 (ip), vehicle: saline with Tween-80) was 113 % of control and the T/C [5] was 110 % of control. The T/C [6] was 119 % of control.

For O=C1OCC/C1=C\NCCCN/C=C1\CCOC1=O, the T/C [7] was 107 % of control, the T/C [8] was 100 % of control and the T/C [9] was 105 % of control.

With COc1cc(OC)c2c(c1)OC(=O)C(C(C)=O)C2 (stereo not given) the T/C [4] was 96 % of control and the T/C [5] was 112 % of control.

In the case of CCCn1cc2c3c(cccc31)C1C=C(C)CN(C)C1C2 (stereo not given), the T/C (dose: 6.25 mg/kg/injection, schedule: Q01DX005 (ip), vehicle: saline with Tween-80) is reported as 100 % of control and 107 % of control, the T/C (dose: 12.5 mg/kg/injection, schedule: Q01DX005 (ip), vehicle: saline with Tween-80) is reported as 99 % of control and 100 % of control and 116 % of control and the T/C [19] is reported as 98 % of control and 105 % of control and 108 % of control. The T/C [5] was 117 % of control.

For CCSCCCCSCC, the T/C [1] was 100 % of control, the T/C [2] was 109 % of control and the T/C [3] was 113 % of control.

In the case of COc1cccc2c1C(=O)c1c(O)c3c(c(O)c1C2=O)CC(O)(c1csc(-c2ccccc2)n1)CC3O (stereo not given), the T/C (dose: 1.56 mg/kg/injection, schedule: Q01DX009 (ip), vehicle: water) is reported as 106 % of control, the T/C (dose: 3.13 mg/kg/injection, schedule: Q01DX009 (ip), vehicle: water) is reported as 100 % of control and the T/C (dose: 6.25 mg/kg/injection, schedule: Q01DX009 (ip), vehicle: water) is reported as 109 % of control. The T/C (dose: 12.5 mg/kg/injection, schedule: Q01DX009 (ip), vehicle: water) was 109 % of control, the T/C (dose: 25.0 mg/kg/injection, schedule: Q01DX009 (ip), vehicle: water) was 103 % of control and the T/C (dose: 50.0 mg/kg/injection, schedule: Q01DX009 (ip), vehicle: water) was 108 % of control.

In the case of CCO/C(C)=N\P(=O)(Oc1ccccc1)Oc1ccccc1, the T/C (dose: 12.5 mg/kg/injection, schedule: Q01DX009 (ip), vehicle: distilled water + Tween-80) is reported as 105 % of control, the T/C (dose: 25.0 mg/kg/injection, schedule: Q01DX009 (ip), vehicle: distilled water + Tween-80) is reported as 102 % of control and the T/C (dose: 50.0 mg/kg/injection, schedule: Q01DX009 (ip), vehicle: distilled water + Tween-80) is reported as 110 % of control. For the same compound, the T/C (dose: 100.0 mg/kg/injection, schedule: Q01DX009 (ip), vehicle: distilled water + Tween-80) was 102 % of control.

In the case of CC1CCC2(NC1)OC1CC3C4CCC5CC(N)CCC5(C)C4CCC3(C)C1C2C (stereo not given), the T/C (dose: 6.25 mg/kg/injection, schedule: Q01DX009 (ip), vehicle: Klucel (hydroxypropylcellulose) (HPC)) is reported as 105 % of control, the T/C (dose: 12.5 mg/kg/injection, schedule: Q01DX009 (ip), vehicle: Klucel (hydroxypropylcellulose) (HPC)) is reported as 95 % of control and the T/C [15] is reported as 106 % of control. For the same compound, the T/C [16] was 110 % of control.

OC1(Cc2ccc(F)cc2)CCCCCC1 was tested, and the T/C [10] was 102 % of control, the T/C [11] was 105 % of control and the T/C [12] was 103 % of control.
